Activity calls are given as the source filed them. The calls are words filed in the database; no cut-off is given here.
How the values were obtained:
Type in all cases: functional, organism-based
[1] = test system: Plasmodium berghei; experiment: Anti-plasmodial activity against pre-erythrocytic stage Plasmodium berghei infected in human Huh-7 cells at 10 to 500 nM by bioluminescence assay; conditions: dose 10-500 nM
[2] = test system: Plasmodium berghei; experiment: Anti-plasmodial activity against pre-erythrocytic stage Plasmodium berghei infected in human Huh-7 cells by bioluminescence assay
[3] = test system: Anopheles stephensi; experiment: Anti-insecticidal activity against female Anopheles stephensi mosquitoes assessed as mosquito survival treated after 18 to 22 hrs starvation using 70 ng/ml compound containing human O+ blood meal via artificial membrane measured after 14 days relative to control
[4] = test system: Plasmodium berghei; experiment: In vivo antiplasmodial activity against Balb/c mouse infected with luciferase expressing Plasmodium berghei infected in red blood cells assessed as parasitemia in blood by measuring bioluminescence at 50 mg/kg, oral gavage 4 consecutive treatment measured upto day 8; conditions: time 8.0 day
[5] = test system: Plasmodium falciparum; experiment: Anti-plasmodial activity against erythrocytic stage Plasmodium falciparum NF54 in […] measured after 48 hrs by SYBR green dye based flow cytometry; conditions: NF54, 48 h
[6] = test system: Plasmodium berghei; experiment: Anti-plasmodial activity against hepatic stage GFP-expressing Plasmodium berghei infected in human Huh-7 cells assessed as parasite invasion of host cells treated at IC90 measured after 2 hrs of post-infection by flow cytometry
[7] = test system: Plasmodium berghei; experiment: In vivo antiplasmodial activity against Balb/c mouse infected with luciferase expressing Plasmodium berghei infected in red blood cells assessed as parasitemia in blood by measuring bioluminescence at 2 mg/kg, oral gavage 4 consecutive treatment measured upto day 8; conditions: time 8.0 day
[8] = test system: Plasmodium berghei; experiment: Anti-plasmodial activity against hepatic stage GFP-expressing Plasmodium berghei infected in human Huh-7 cells assessed as parasite invasion of host cells treated at IC90 measured after 48 hrs of post-infection by flow cytometry

CCC(C)[C@H]1O[C@]2(CC[C@@H]1C)C[C@@H]1C[C@@H](C/C=C(\C)[C@@H](O[C@H]3C[C@H](OC)[C@@H](O[C@H]4C[C@H](OO)[C@@H](OC(=O)CCl)[C@H](C)O4)[C@H](C)O3)[C@@H](C)/C=C/C=C3\CO[C@@H]4[C@H](O[Si](C)(C)C(C)(C)C)C(C)=C[C@@H](C(=O)O1)[C@]34O)O2 (stereo not given in full)
Activity [1]: inactive

CCC(C)[C@H]1O[C@]2(CC[C@@H]1C)C[C@@H]1C[C@@H](C/C=C(\C)[C@@H](O[C@H]3C[C@H](OC)[C@@H](O)[C@H](C)O3)[C@@H](C)/C=C/C=C3\CO[C@@H]4[C@H](O)C(CO)=C[C@@H](C(=O)O1)[C@]34O)O2 (stereo not given in full)
Activity [1]: inactive | IC50 [2]: 2.6 µM | Activity [3]: Active

CCC(C)[C@H]1O[C@]2(CC[C@@H]1C)C[C@@H]1C[C@@H](C/C=C(\C)[C@@H](O[C@H]3C[C@H](OC)[C@@H](OC(=O)CNC4CCNCC4)[C@H](C)O3)[C@@H](C)/C=C/C=C3\CO[C@@H]4[C@H](O)C(C)=C[C@@H](C(=O)O1)[C@]34O)O2 (stereo not given in full)
Activity [1]: inactive | IC50 [2]: 5.7 µM | Activity [3]: Active

CCN(CC)CCCC(C)Nc1ccnc2cc(Cl)ccc12 (stereo not given)
Activity [4]: Active

CCC(C)[C@H]1O[C@]2(CC[C@@H]1C)C[C@@H]1C[C@@H](C/C=C(\C)[C@@H](O[C@H]3C[C@H](OC)[C@@H](O[C@H]4C[C@H](OO)[C@@H](O)[C@H](C)O4)[C@H](C)O3)[C@@H](C)/C=C/C=C3\CO[C@@H]4[C@H](O)C(CO)=C[C@@H](C(=O)O1)[C@]34O)O2 (stereo not given in full)
Activity [1]: inactive | IC50 [2]: 2.22 µM | Activity [3]: Active

CCC(C)[C@H]1O[C@]2(CC[C@@H]1C)C[C@@H]1C[C@@H](C/C=C(\C)[C@@H](O[C@H]3C[C@H](OC)[C@@H](O[C@H]4C[C@H](OO)[C@@H](OC(=O)CNC5CCNCC5)[C@H](C)O4)[C@H](C)O3)[C@@H](C)/C=C/C=C3\CO[C@@H]4[C@H](O)C(C)=C[C@@H](C(=O)O1)[C@]34O)O2 (stereo not given in full)
Activity [1]: inactive | IC50 [2]: 5.8 µM | Activity [3]: inactive

CCC(C)[C@H]1O[C@]2(CC[C@@H]1C)C[C@@H]1C[C@@H](C/C=C(\C)[C@@H](O)[C@@H](C)/C=C/C=C3\CO[C@@H]4[C@H](O)C(CO)=C[C@@H](C(=O)O1)[C@]34O)O2 (stereo not given in full)
Activity [1]: inactive | IC50 [2]: 1.64 µM | Activity [3]: Active

CCOC(=O)c1c(C)nc(OCc2cn(CC(=O)O[C@H]3[C@H](C)O[C@@H](O[C@@H]4/C(C)=C/C[C@@H]5C[C@@H](C[C@]6(CC[C@H](C)[C@@H](C(C)CC)O6)O5)OC(=O)[C@@H]5C=C(C)[C@@H](O)[C@H]6OC/C(=C\C=C\[C@@H]4C)[C@]65O)C[C@@H]3OC)nn2)nc1-c1cc(OC)c(OC)cc1[N+](=O)[O-] (stereo not given in full)
Activity [1]: Dose-Dependent Effect | IC50 [5]: 0.11 µM | Activity [6]: inactive | IC50 [2]: 1.54 µM | IC90 [2]: 3.18 µM | Activity [7]: inactive | Activity [8]: Active

CCC(C)[C@H]1O[C@]2(CC[C@@H]1C)C[C@@H]1C[C@@H](C/C=C(\C)[C@@H](O[C@H]3C[C@H](OC)[C@@H](O[C@H]4C[C@H](OO)[C@@H](O)[C@H](C)O4)[C@H](C)O3)[C@@H](C)/C=C/C=C3\CO[C@@H]4[C@H](O)C(C)=C[C@@H](C(=O)O1)[C@]34O)O2 (stereo not given in full)
Activity [1]: Dose-Dependent Effect | IC50 [5]: 0.46 µM | IC50 [2]: 1.5 µM | IC90 [2]: 3.1 µM

CCC(C)[C@H]1O[C@]2(CC[C@@H]1C)C[C@@H]1C[C@@H](C/C=C(\C)[C@@H](O[C@H]3C[C@H](OC)[C@@H](O)[C@H](C)O3)[C@@H](C)/C=C/C=C3\CO[C@@H]4[C@H](O)C(C)=C[C@@H](C(=O)O1)[C@]34O)O2 (stereo not given in full)
Activity [1]: inactive | IC50 [2]: 5.63 µM | Activity [3]: Active

CCC(C)[C@H]1O[C@]2(CC[C@@H]1C)C[C@@H]1C[C@@H](C/C=C(\C)[C@@H](O[C@H]3C[C@H](OC)[C@@H](O[C@H]4C[C@H](OO)[C@@H](OC(=O)CCl)[C@H](C)O4)[C@H](C)O3)[C@@H](C)/C=C/C=C3\CO[C@@H]4[C@H](O)C(C)=C[C@@H](C(=O)O1)[C@]34O)O2 (stereo not given in full)
Activity [1]: Dose-Dependent Effect | IC50 [5]: 0.3 µM | IC50 [2]: 2.61 µM | Activity [3]: Active

CCC(C)[C@H]1O[C@]2(CC[C@@H]1C)C[C@@H]1C[C@@H](C/C=C(\C)[C@@H](O[C@H]3C[C@H](OC)[C@@H](OC(=O)CCl)[C@H](C)O3)[C@@H](C)/C=C/C=C3\CO[C@@H]4[C@H](O[Si](C)(C)C(C)(C)C)C(C)=C[C@@H](C(=O)O1)[C@]34O)O2 (stereo not given in full)
Activity [1]: inactive

CCC(C)[C@H]1O[C@]2(CC[C@@H]1C)C[C@@H]1C[C@@H](C/C=C(\C)[C@@H](O[C@H]3C[C@H](OC)[C@@H](O[C@H]4C[C@H](OO)[C@@H](O)[C@H](C)O4)[C@H](C)O3)[C@@H](C)/C=C/C=C3\CO[C@@H]4[C@H](O[Si](C)(C)C(C)(C)C)C(C)=C[C@@H](C(=O)O1)[C@]34O)O2 (stereo not given in full)
Activity [1]: Dose-Dependent Effect | IC50 [5]: 0.7 µM | IC50 [2]: 3.69 µM

CCC(C)[C@H]1O[C@]2(CC[C@@H]1C)C[C@@H]1C[C@@H](C/C=C(\C)[C@@H](O[C@H]3C[C@H](OC)[C@@H](OC(=O)CCl)[C@H](C)O3)[C@@H](C)/C=C/C=C3\CO[C@@H]4[C@H](O)C(C)=C[C@@H](C(=O)O1)[C@]34O)O2 (stereo not given in full)
Activity [1]: inactive

CCC(C)[C@H]1O[C@]2(CC[C@@H]1C)C[C@@H]1C[C@@H](C/C=C(\C)[C@@H](O[C@H]3C[C@H](OC)[C@@H](O)[C@H](C)O3)[C@@H](C)/C=C/C=C3\CO[C@@H]4[C@H](O[Si](C)(C)C(C)(C)C)C(C)=C[C@@H](C(=O)O1)[C@]34O)O2 (stereo not given in full)
Activity [1]: Dose-Dependent Effect | IC50 [5]: 0.72 µM | IC50 [2]: 2.91 µM

CCOC(=O)c1c(C)nc(OCc2cn(CC(=O)O[C@H]3[C@H](C)O[C@@H](O[C@H]4[C@H](C)O[C@@H](O[C@@H]5/C(C)=C/C[C@@H]6C[C@@H](C[C@]7(CC[C@H](C)[C@@H](C(C)CC)O7)O6)OC(=O)[C@@H]6C=C(C)[C@@H](O)[C@H]7OC/C(=C\C=C\[C@@H]5C)[C@]76O)C[C@@H]4OC)C[C@@H]3OC)nn2)nc1-c1cc(OC)c(OC)cc1[N+](=O)[O-] (stereo not given in full)
Activity [1]: Dose-Dependent Effect | IC50 [5]: 0.03 µM | Activity [6]: inactive | IC50 [2]: 2.33 µM | IC90 [2]: 4.28 µM | Activity [7]: inactive | Activity [8]: Active

From ChEMBL document CHEMBL6127120, “Antiplasmodial and Insecticidal Activities of Third-Generation Ivermectin Hybrids” (J Med Chem, 2024)
